# Read-outs that look alike come from different tables or passages of the source. Positions of bridges follow the written chain, without caps; N, C: chain ends. Non-standard residues stand in square brackets, D forms with d. Residues, ends and D or L forms follow the SMILES beside them. ξ: configuration not given here. *: point of attachment. Phe(2,4-F2) = N[C@@H](Cc1ccc(F)cc1F)C(=O)O; Phe(3-Br) = N[C@@H](Cc1cccc(Br)c1)C(=O)O; 2Nal = N[C@@H](Cc1ccc2ccccc2c1)C(=O)O; Cit = NC(=O)NCCC[C@H](N)C(=O)O; Gly(cPr) = N[C@H](C(=O)O)C1CC1; Ahp(2) = CCCCC[C@H](N)C(=O)O; NMeNle = CCCC[C@H](NC)C(=O)O; Tle = CC(C)(C)[C@H](N)C(=O)O; NHexGly = CCCCCCNCC(=O)O; Nle = CCCC[C@H](N)C(=O)O; Orn = NCCC[C@H](N)C(=O)O; ξS = NC(CO)C(=O)O; Allyl = C=CC*
# Target: T1, mouse VISTA (mVISTA) (Mus musculus, UniProt Q9D659)
# T1 construct: expressed in transfected cells; host or cells: Human embryonic kidney 293T cells
# T1 sequence (Q9D659 33-308): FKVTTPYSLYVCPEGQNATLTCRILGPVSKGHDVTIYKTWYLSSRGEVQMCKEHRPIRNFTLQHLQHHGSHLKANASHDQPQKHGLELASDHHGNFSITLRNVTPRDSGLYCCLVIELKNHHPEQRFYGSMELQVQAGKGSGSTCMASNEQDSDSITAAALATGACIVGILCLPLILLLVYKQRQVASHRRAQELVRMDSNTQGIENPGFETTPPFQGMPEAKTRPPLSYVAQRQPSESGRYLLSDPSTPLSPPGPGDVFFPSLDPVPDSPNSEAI
# Test: Cell-Based Binding High-Content Assay For mVISTA (HC CBA mVISTA)
# Settings: read-out: HC CBA mVISTA IC50
# How it was run: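 mVISTA-293T, 4,000 cells/well; cpd ± washout step; biotin-peptide 2 nM final, 30 min RT; SA-Alexa 647 30 min; formaldehyde/Hoechst fix; HCS imaging; 4PL IC50.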
# [1] = cell-based binding high-content assay, mVISTA, the 15th table
IC50 [nM],IC50 [1] [nM],Structure (SMILES)
24.7,,"CCCCCCN1CC(=O)N[C@@H](Cc2ccc(O)cc2)C(=O)N[C@@H](CCCCC)C(=O)N[C@@H](CC(N)=O)C(=O)N[C@@H](CCCNC(=N)N)C(=O)N(C)[C@@H](CCCC)C(=O)N[C@@H](CCCCC)C(=O)N2CCC[C@H]2C(=O)N[C@@H](C(C)C)C(=O)N[C@@H](C(C)C)C(=O)N[C@H](C(=O)NCC(=O)O)CSCC(=O)N[C@@H](Cc2ccc(F)cc2F)C(=O)N[C@@H](Cc2c[nH]c3ccccc23)C(=O)N[C@@H](CC(=O)O)C1=O [compound 1220] ({CH2CO}-[Phe(2,4-F2)]WD[NHexGly]Y[Ahp(2)]NR[NMeNle][Ahp(2)]PVVCG-OH; thioether N-14)"
20.3,,"CCCCCCN1CC(=O)N[C@@H](Cc2ccc(O)cc2)C(=O)N[C@@H](CCCCC)C(=O)N[C@@H](CC(N)=O)C(=O)N[C@@H](CCCNC(=N)N)C(=O)N(C)[C@@H](CCCC)C(=O)N[C@@H](CCCCC)C(=O)N2CCC[C@H]2C(=O)N[C@@H](C(C)C)C(=O)N[C@@H](C(C)C)C(=O)N[C@H](C(=O)NC(CO)C(=O)O)CSCC(=O)N[C@@H](Cc2ccc(F)cc2F)C(=O)N[C@@H](Cc2c[nH]c3ccccc23)C(=O)N[C@@H](CC(=O)O)C1=O (stereo partly drawn) [compound 1221] ({CH2CO}-[Phe(2,4-F2)]WD[NHexGly]Y[Ahp(2)]NR[NMeNle][Ahp(2)]PVVC[ξS]-OH; thioether N-14)"
21.7,,C=CCOc1ccc(C[C@@H]2NC(=O)CSC[C@@H](C(=O)NCC(N)=O)NC(=O)[C@H](CO)NC(=O)[C@H](C(C)C)NC(=O)[C@@H]3CCCN3C(=O)[C@H](CCCCC)NC(=O)[C@H](CCCC)N(C)C(=O)[C@H](CCCNC(=N)N)NC(=O)[C@H](CC(N)=O)NC(=O)[C@H](CC(C)C)NC(=O)[C@H](Cc3ccc(O)cc3)NC(=O)CN(CCCCCC)C(=O)[C@H](CC(=O)O)NC(=O)[C@H](Cc3ccc(O)cc3)NC2=O)cc1 [compound 1222] ({CH2CO}-Y(Allyl)YD[NHexGly]YLNR[NMeNle][Ahp(2)]PVSCG-NH2; thioether N-14)
22.6,,CCCCCCN1CC(=O)N[C@@H](Cc2ccc(O)cc2)C(=O)N[C@@H](CC(C)C)C(=O)N[C@@H](CC(N)=O)C(=O)N[C@@H](CCCNC(=N)N)C(=O)N(C)[C@@H](CCCC)C(=O)N[C@@H](CCCCC)C(=O)N2CCC[C@H]2C(=O)N[C@@H](C(C)C)C(=O)N[C@@H](CO)C(=O)N[C@H](C(=O)NCC(N)=O)CSCC(=O)N[C@@H](Cc2cccc(Br)c2)C(=O)N[C@@H](Cc2ccc(O)cc2)C(=O)N[C@@H](CC(=O)O)C1=O [compound 1224] ({CH2CO}-[Phe(3-Br)]YD[NHexGly]YLNR[NMeNle][Ahp(2)]PVSCG-NH2; thioether N-14)
,14.4,CCCCCCN1CC(=O)N[C@@H](Cc2ccc(O)cc2)C(=O)N[C@@H](CCCC)C(=O)N[C@@H](CC(=O)O)C(=O)N[C@@H](CCCNC(=N)N)C(=O)N[C@@H](CC(C)C)C(=O)N[C@@H](CCCCC)C(=O)N2CCC[C@H]2C(=O)N[C@@H](C(C)C)C(=O)N[C@@H](CC(=O)O)C(=O)N[C@H](C(=O)N[C@@H](CC(=O)O)C(N)=O)CSCC(=O)N[C@@H](Cc2ccc3ccccc3c2)C(=O)N[C@@H](Cc2c[nH]c3ccccc23)C(=O)N[C@@H](CC(=O)O)C1=O [compound 1226] ({CH2CO}-[2Nal]WD[NHexGly]Y[Nle]DRL[Ahp(2)]PVDCD-NH2; thioether N-14)
,32.2,CCCCCCN1CC(=O)N[C@@H](Cc2ccc(O)cc2)C(=O)N[C@@H](CCCC)C(=O)N[C@@H](CC(=O)O)C(=O)N[C@@H](CCCN)C(=O)N[C@@H](CC(C)C)C(=O)N[C@@H](CCCCC)C(=O)N2CCC[C@H]2C(=O)N[C@@H](C(C)C)C(=O)N[C@@H](CC(=O)O)C(=O)N[C@H](C(=O)N[C@@H](CC(=O)O)C(N)=O)CSCC(=O)N[C@@H](Cc2ccc3ccccc3c2)C(=O)N[C@@H](Cc2c[nH]c3ccccc23)C(=O)N[C@@H](CC(=O)O)C1=O [compound 1227] ({CH2CO}-[2Nal]WD[NHexGly]Y[Nle]D[Orn]L[Ahp(2)]PVDCD-NH2; thioether N-14)
,27.1,CCCCCCN1CC(=O)N[C@@H](Cc2ccc(O)cc2)C(=O)N[C@@H](C(C)C)C(=O)NCC(=O)N[C@@H](CCCNC(=N)N)C(=O)N[C@@H](CC(C)C)C(=O)N[C@@H](CCCCC)C(=O)N2CCC[C@H]2C(=O)N[C@@H](C(C)C)C(=O)N[C@@H](CC(=O)O)C(=O)N[C@H](C(=O)NCC(N)=O)CSCC(=O)N[C@@H](Cc2ccc3ccccc3c2)C(=O)N[C@@H](Cc2c[nH]c3ccccc23)C(=O)N[C@@H](CC(=O)O)C1=O [compound 1228] ({CH2CO}-[2Nal]WD[NHexGly]YVGRL[Ahp(2)]PVDCG-NH2; thioether N-14)
,13.2,CCCCCCN1CC(=O)N[C@@H](Cc2ccc(O)cc2)C(=O)N[C@@H](CCCC)C(=O)N[C@@H](CC(N)=O)C(=O)N[C@@H](CCCNC(=N)N)C(=O)N[C@@H](CC(C)C)C(=O)N[C@@H](CCCCC)C(=O)N2CCC[C@H]2C(=O)N[C@@H](C(C)C)C(=O)N[C@@H](CC(=O)O)C(=O)N[C@H](C(=O)NCC(=O)O)CSCC(=O)N[C@@H](Cc2ccc3ccccc3c2)C(=O)N[C@@H](Cc2c[nH]c3ccccc23)C(=O)N[C@@H](CC(=O)O)C1=O [compound 1229] ({CH2CO}-[2Nal]WD[NHexGly]Y[Nle]NRL[Ahp(2)]PVDCG-OH; thioether N-14)
,5.7,CCCCCCN1CC(=O)N[C@@H](Cc2ccc(O)cc2)C(=O)N[C@@H](C(C)C)C(=O)NCC(=O)N[C@@H](CCCNC(=N)N)C(=O)N[C@@H](CC(C)C)C(=O)N[C@@H](CCCCC)C(=O)N2CCC[C@H]2C(=O)N[C@@H](C(C)C)C(=O)N[C@@H](CCCNC(=N)N)C(=O)N[C@H](C(=O)NCC(=O)O)CSCC(=O)N[C@@H](Cc2ccc3ccccc3c2)C(=O)N[C@@H](Cc2c[nH]c3ccccc23)C(=O)N[C@@H](CC(=O)O)C1=O [compound 1230] ({CH2CO}-[2Nal]WD[NHexGly]YVGRL[Ahp(2)]PVRCG-OH; thioether N-14)
,36,CCCCCCN1CC(=O)N[C@@H](Cc2ccc(O)cc2)C(=O)N[C@@H](CCCC)C(=O)N[C@@H](CC(N)=O)C(=O)N[C@@H](CCCNC(=N)N)C(=O)N[C@@H](CC(C)C)C(=O)N[C@@H](CCCCC)C(=O)N2CCC[C@H]2C(=O)N[C@@H](C(C)C)C(=O)N[C@@H](C2CC2)C(=O)N[C@H](C(=O)NCC(=O)O)CSCC(=O)N[C@@H](Cc2ccc3ccccc3c2)C(=O)N[C@@H](Cc2c[nH]c3ccccc23)C(=O)N[C@@H](CC(=O)O)C1=O [compound 1232] ({CH2CO}-[2Nal]WD[NHexGly]Y[Nle]NRL[Ahp(2)]PV[Gly(cPr)]CG-OH; thioether N-14)
,10.5,CCCCCCN1CC(=O)N[C@@H](Cc2ccc(O)cc2)C(=O)N[C@@H](CCCC)C(=O)N[C@@H](CC(N)=O)C(=O)N[C@@H](CCCNC(N)=O)C(=O)N[C@@H](CC(C)C)C(=O)N[C@@H](CCCCC)C(=O)N2CCC[C@H]2C(=O)N[C@@H](C(C)C)C(=O)N[C@@H](CC(=O)O)C(=O)N[C@H](C(=O)NCC(=O)O)CSCC(=O)N[C@@H](Cc2ccc3ccccc3c2)C(=O)N[C@@H](Cc2c[nH]c3ccccc23)C(=O)N[C@@H](CC(=O)O)C1=O [compound 1233] ({CH2CO}-[2Nal]WD[NHexGly]Y[Nle]N[Cit]L[Ahp(2)]PVDCG-OH; thioether N-14)
,13.4,CCCCCCN1CC(=O)N[C@@H](Cc2ccc(O)cc2)C(=O)N[C@@H](CCCC)C(=O)N[C@@H](CC(=O)O)C(=O)N[C@@H](CCCNC(=N)N)C(=O)N[C@@H](CC(C)C)C(=O)N[C@@H](CCCCC)C(=O)N2CCC[C@H]2C(=O)N[C@@H](C(C)C)C(=O)N[C@@H](CC(=O)O)C(=O)N[C@H](C(=O)N[C@@H](CO)C(N)=O)CSCC(=O)N[C@@H](Cc2ccc3ccccc3c2)C(=O)N[C@@H](Cc2c[nH]c3ccccc23)C(=O)N[C@@H](CC(=O)O)C1=O [compound 1235] ({CH2CO}-[2Nal]WD[NHexGly]Y[Nle]DRL[Ahp(2)]PVDCS-NH2; thioether N-14)
,27.7,CCCCCCN1CC(=O)N[C@@H](Cc2ccc(O)cc2)C(=O)N[C@@H](CCCC)C(=O)N[C@@H](CC(=O)O)C(=O)N[C@@H](CCCN)C(=O)N[C@@H](CC(C)C)C(=O)N[C@@H](CCCCC)C(=O)N2CCC[C@H]2C(=O)N[C@@H](C(C)C)C(=O)N[C@@H](CC(=O)O)C(=O)N[C@H](C(=O)N[C@@H](CO)C(N)=O)CSCC(=O)N[C@@H](Cc2ccc3ccccc3c2)C(=O)N[C@@H](Cc2c[nH]c3ccccc23)C(=O)N[C@@H](CC(=O)O)C1=O [compound 1236] ({CH2CO}-[2Nal]WD[NHexGly]Y[Nle]D[Orn]L[Ahp(2)]PVDCS-NH2; thioether N-14)

Structure (SMILES),IC50 [nM],IC50 [1] [nM]
C=CCOc1ccc(C[C@@H]2NC(=O)CSC[C@@H](C(=O)NCC(N)=O)NC(=O)[C@H](CO)NC(=O)[C@H](C(C)(C)C)NC(=O)[C@@H]3CCCN3C(=O)[C@H](CCCCC)NC(=O)[C@H](CCCC)N(C)C(=O)[C@H](CCCNC(=N)N)NC(=O)[C@H](CC(N)=O)NC(=O)[C@H](CC(C)C)NC(=O)[C@H](Cc3ccc(O)cc3)NC(=O)CN(CCCCCC)C(=O)[C@H](CC(=O)O)NC(=O)[C@H](Cc3ccc(O)cc3)NC2=O)cc1 [compound 1223] ({CH2CO}-Y(Allyl)YD[NHexGly]YLNR[NMeNle][Ahp(2)]P[Tle]SCG-NH2; thioether N-14),18.1,
CCCCCCN1CC(=O)N[C@@H](Cc2ccc(O)cc2)C(=O)N[C@@H](CC(C)C)C(=O)N[C@@H](CC(N)=O)C(=O)N[C@@H](CCCNC(=N)N)C(=O)N(C)[C@@H](CCCC)C(=O)N[C@@H](CCCCC)C(=O)N2CCC[C@H]2C(=O)N[C@@H](C(C)(C)C)C(=O)N[C@@H](CO)C(=O)N[C@H](C(=O)NCC(N)=O)CSCC(=O)N[C@@H](Cc2cccc(Br)c2)C(=O)N[C@@H](Cc2ccc(O)cc2)C(=O)N[C@@H](CC(=O)O)C1=O [compound 1225] ({CH2CO}-[Phe(3-Br)]YD[NHexGly]YLNR[NMeNle][Ahp(2)]P[Tle]SCG-NH2; thioether N-14),31.2,
